Here are results for five compounds from PMC7277860, “Viridistratins A−C, Antimicrobial and Cytotoxic Benzo[j]fluoranthenes from Stromata of Annulohypoxylon viridistratum (Hypoxylaceae, Ascomycota)” (Biomolecules, 2020).

In brackets after ≈: the same amount, converted by molar mass.

Assay in all cases: MIC serial dilution assay
Assay type in all cases: cell-based

The subject of test [1] is Bacillus subtilis. The following applies: Bacillus subtilis DSM10; overnight, 30 °C; reference oxytetracycline 1 mg/mL; read-out: Minimum Inhibitory Concentration (MIC). The protocol: (§1) Compounds 1, 2, 4 and 5 were dissolved in MeOH (1 mg/mL) for the antimicrobial activity assay, while compound 3 was dissolved in MeOH: DMSO 9+1 (1 mg/mL). The solvents were also used as negative controls.
(§2) Minimum inhibitory concentrations (MIC) were determined in a serial dilution assay, as described previously; a detailed protocol can be found in the Supporting Information. The compounds (1 mg/mL) were diluted to a range of 66.7 to 0.52 µg/mL and incubated with the test organisms overnight. Inhibition of growth was visually evaluated the next day: the MIC is defined as the lowest concentration of the test compound where no growth of the test organism was observed. Various test organisms of fungal and bacterial origin were tested to cover a broad range of microorganisms. This selection is also being used as a standard test panel in our attempts to discover new anti-infectives, as it represents a broad spectrum of pathogens of clinical interest, as well as sensitive indicator strains (bacteria: Bacillus subtilis, Staphylococcus aureus, Micrococcus luteus, Chromobacterium violaceum, Escherichia coli and Pseudomonas aeruginosa; mycobacteria: Mycolicibacterium smegmatis and fungi: Candida albicans, Schizosaccharomyces pombe, Mucor hiemalis, Pichia anomala and Rhodotorula glutinis).
(§3) Protocol: Antimicrobial Activi ty Assay
(§4) The assay was conducted as a minimum inhi bitory concentration (MIC) assay in 96-well ro und-bottom mi crotiter pl ate s usi ng the p ar ameter s su mm ari zed i n T a bl e S 1 and as already described i n [S1].
(§5) Stocks of the test organi sms were generated by growing the organisms o ver ni ght i n 50 mL shaki ng fl asks fi ll ed wi th 25 mL of the growth medi um at 140 rpm (for media and temperatures see Table S1). If the organisms were well grown the ne xt day, which was checked by occurrence of an optical density (OD)>30 of the suspension (OD600 nm for bacteria, OD548 nm for fungi and M. smegma tis) , aliquots of these were stored i n 1.5 mL reaction tube s in a freezer at −80 °C for up to 12 mo nths . Upon use, aliquots were unth awed and the OD of the suspension measured and adjusted by diluting with the respective growth medi um. OD600 nm w as adj usted to 0.01 and OD548 nm to 0.1.
(§6) Subse que ntly, 150 µL o f the adjusted suspensions were added to all wells of a 96-wel l microtiter pl ate (one test organi sm per plate). In row A, additional 130 µL of suspensions plus 20 µL of the test compounds (1 mg/mL) and the controls (one compound/column) were added. MeOH as well as MeOH:DMSO 9+1 were used as negative controls, while different positive controls (refer ences) were used for the test organisms (see Tabl e S1). Then, starti ng from row A, 150 µ L of the suspension were transferred to the next row, the contents thoroughly mixed, and 150 µ L transferred to the following row.
(§7) The remaining 150 µ L after row H were discarded. […]
(§8) compounds, ranging from 66.7 µg/mL i n row A to 0.52 µg/mL i n row H.
(§9) The microtiter plates were then incubated overnight o n a microplate shaker at 800 rpm at 30 or 37 °C (see Table S1) and were visually evaluated the next day. The MIC is defined as the lowest concentration were no growth of the test organism was o bserved. A lower MIC thus corresponds to a higher antimicrobial activity of the test compound.
(§10) Table S1: MIC assay ex per i men t parameters test organism strain No. growth incubation positive control (reference) […]
Bacillus subtilis DSM10 MHB 1 30 oxytetr acyclin 1.0 mg/mL […]
(§11) Rhodotorula glutinis DSM10134 MYC 3 30 nyst ati n 1.0 mg/mL
(§12) 1 MHB: Müller-Hinton Broth (SN X927.1, Ca r l Roth GmbH, Karlsruhe, Germany) 2 7H9+ADC: Middlebrook 7H9 Broth Base + Middlebrook ADC Growth Supplement (SN M0678+M0553, Merck, Darmstadt, Germany)
(§13) 3 MYC: 1 % w/v, bacto peptone, 1% w/v yeast extract, 2 % w /v glycerol, pH 6.3 [S1] Helaly, S.E.; Ashrafi, S.; Teponno, R.B.; Bernecker, S.; Dababat, A.A.; Maier, W.; Stadler, M.
(§14) Nematicidal Cyclic Lipodepsipeptides and a Xanthocillin Derivative from a Phaeosphariaceous […]

The test system of test [2] is Staphylococcus aureus. The following applies: Staphylococcus aureus DSM346; overnight, 30 °C; reference oxytetracycline 0.1 mg/mL; read-out: Minimum Inhibitory Concentration (MIC). The protocol:
as §1, §2, §3, §4, §5, §6, §7, §8, §9, §10
Staphylococcus aureus DSM346 MHB 1 30 oxytetr acyclin 0.1 mg/mL […]
as §11, §12, §13, §14

The subject of test [3] is Micrococcus luteus. The note with it: overnight, 30 °C, reference oxytetracycline 0.1 mg/mL; for MIC: Micrococcus luteus, DSM1790, Micrococcus luteus DSM1790, read-out: Minimum Inhibitory Concentration (MIC). The protocol: as §1, §2, §3, §4, §5, §6, §7, §8, §9, §10
Micrococcus luteu s DSM1790 MHB 1 30 oxytetr acyclin 0.1 mg/mL […]
as §11, §12, §13, §14

Test [4] relates to Chromobacterium violaceum. The following applies: Chromobacterium violaceum DSM30191; overnight, 30 °C; reference oxytetracycline 0.1 mg/mL; read-out: Minimum Inhibitory Concentration (MIC). How it is done:
as §1, §2, §3, §4, §5, §6, §7, §8, §9, §10
Chromobacterium DSM30191 MHB 1 30 oxytetr acyclin 0.1 mg/mL […]
as §11, §12, §13, §14

Test [5] relates to Escherichia coli. The following applies: Escherichia coli DSM1116; overnight, 37 °C; reference oxytetracycline 0.1 mg/mL; read-out: Minimum Inhibitory Concentration (MIC). The protocol: as §1, §2, §3, §4, §5, §6, §7, §8, §9, §10
Escherichia coli DSM1116 MHB 1 37 oxytetr acyclin 0.1 mg/mL […]
as §11, §12, §13, §14

For test [6], the system named is Pseudomonas aeruginosa. The following applies: Pseudomonas aeruginosa PA14; overnight, 37 °C; reference gentamicin 0.1 mg/mL; read-out: Minimum Inhibitory Concentration (MIC). How it is done:
as §1, §2, §3, §4, §5, §6, §7, §8, §9, §10
Pseudomonas a erugi nosa PA14 MHB 1 37 gent amici n 0.1 mg/mL […]
as §11, §12, §13, §14

In test [7] the test system is Mycolicibacterium smegmatis. The note with it: Mycolicibacterium smegmatis ATCC700084; overnight, 37 °C; reference kanamycin 0.1 mg/mL; read-out: Minimum Inhibitory Concentration (MIC). The protocol:
as §1, §2, §3, §4, §5, §6, §7, §8, §9, §10, §11, §12, §13, §14

The subject of test [8] is Rhodotorula glutinis. The note with it: Rhodotorula glutinis, DSM10134, Rhodotorula glutinis DSM10134; overnight, 30 °C; reference nystatin 1 mg/mL; read-out: Minimum Inhibitory Concentration (MIC). The protocol: as §1, §2, §3, §4, §5, §6, §7, §8, §9, §10, §11, §12, §13, §14
Test [9] relates to Schizosaccharomyces pombe. The following applies: Schizosaccharomyces pombe DSM70572; overnight, 30 °C; reference nystatin 1 mg/mL; read-out: Minimum Inhibitory Concentration (MIC). How it is done: as §1, §2, §3, §4, §5, §6, §7, §8, §9, §10
Schizosaccharomyces DSM70572 MYC 3 30 nyst ati n 1.0 mg/mL […]
as §11, §12, §13, §14

The subject of test [10] is Pichia anomala. The following applies: Hansenula anomala; Pichia anomala DSM6766; overnight, 30 °C; reference nystatin 1 mg/mL; read-out: Minimum Inhibitory Concentration (MIC). The protocol:
as §1, §2, §3, §4, §5, §6, §7, §8, §9, §10
Pichia anomala DSM6766 MYC 3 30 nyst ati n 1.0 mg/mL
as §11, §12, §13, §14

On to `O=C1C[C@H]2C(=C3CCC(=O)c4c(O)ccc2c43)c2cccc(O)c21` [Compound 4, truncatone A], for which the MIC in [1] was more than 66.7 µg/mL; in [2], more than 66.7 µg/mL; in [3], 16.7 µg/mL (≈ 52.5 µM); in test [4] it was more than 66.7 µg/mL; in [5], more than 66.7 µg/mL; in [6], more than 66.7 µg/mL. For the same compound, the MIC in test [7], in test [8], in test [9] and in test [10] was more than 66.7 µg/mL throughout. Further, in [3] (Micrococcus luteus DSM1790), the “Minimum Inhibitory Concentration (MIC)” value is 33.3 µg/mL.
On to `O=C1CCC(=O)c2c1c(O)cc1c2-c2ccc(O)c3c(O)ccc-1c23` [Compound 5, truncatone C], for which the MIC in test [1] is 66.7 µg/mL (≈ 201 µM); in [2], more than 66.7 µg/mL; in test [3], 16.7 µg/mL (≈ 50.3 µM); in test [4], more than 66.7 µg/mL; in [5], more than 66.7 µg/mL; in test [6] it was more than 66.7 µg/mL. In addition, the MIC in test [7], in test [9] and in [10] was more than 66.7 µg/mL in each case.
Take `Oc1cccc2c3c(ccc12)-c1ccc(O)c2c(O)ccc-3c12` [Compound 1, viridistratin A]: the MIC was 33.3 µg/mL (≈ 111 µM) in test [1]; 66.7 µg/mL (≈ 222 µM) in test [2]; 16.7 µg/mL (≈ 55.6 µM) in [3]; 66.7 µg/mL (≈ 222 µM) in [4]; more than 66.7 µg/mL in test [5]; more than 66.7 µg/mL in test [6]. Besides, the MIC is more than 66.7 µg/mL in test [7], 33.3 µg/mL (≈ 111 µM) in test [8], 66.7 µg/mL (≈ 222 µM) in test [9] and 66.7 µg/mL (≈ 222 µM) in test [10].
Turning to `COc1cccc2c3c(ccc12)-c1ccc(O)c2c(OC)ccc-3c12` [Compound 3, viridistratin C], the MIC in test [1], in test [2], in [4], in test [5], in test [6] and in test [7] was more than 66.7 µg/mL throughout. Besides, the MIC in test [8], in test [9] and in [10] was more than 66.7 µg/mL in each case.
`COc1cccc2c3c(ccc12)-c1ccc(O)c2c(O)ccc-3c12` [Compound 2, viridistratin B]: the MIC in [1] is 16.7 µg/mL (≈ 53.1 µM); in test [2], 16.7 µg/mL (≈ 53.1 µM); in [3] it was 8.3 µg/mL (≈ 26.4 µM); in test [4], 66.7 µg/mL (≈ 212 µM); in [5], more than 66.7 µg/mL; in [6], more than 66.7 µg/mL. Further, the MIC in test [7], in test [8], in test [9] and in [10] was 33.3 µg/mL (≈ 106 µM) each time.
